Test results as given in patent US9181259B2 (LEO PHARMA A/S, priority 2012, dated 2015).
Counter-ions that a name gives are not always drawn.

Assays:
NK1 receptor = biological target: T1, NK1 receptor (Homo sapiens, UniProt P25103); test: NK1 receptor mediated intracellular [Ca2+] mobilization in U251 MG cells using FLIPR; format: cell-based; conditions: antagonist potency against Substance P (EC80), normalized to 100 nM Aprepitant, read-out: U251MG (FLIPR pIC50) (converted)
T1 construct: Measurement of NK1 Receptor Mediated Intracellular [Ca^2+]; Mobilization in U251 MG Cells Using FLIPR; endogenous in cells; host or cells: U251 MG cells
T1 sequence (P25103 whole entry): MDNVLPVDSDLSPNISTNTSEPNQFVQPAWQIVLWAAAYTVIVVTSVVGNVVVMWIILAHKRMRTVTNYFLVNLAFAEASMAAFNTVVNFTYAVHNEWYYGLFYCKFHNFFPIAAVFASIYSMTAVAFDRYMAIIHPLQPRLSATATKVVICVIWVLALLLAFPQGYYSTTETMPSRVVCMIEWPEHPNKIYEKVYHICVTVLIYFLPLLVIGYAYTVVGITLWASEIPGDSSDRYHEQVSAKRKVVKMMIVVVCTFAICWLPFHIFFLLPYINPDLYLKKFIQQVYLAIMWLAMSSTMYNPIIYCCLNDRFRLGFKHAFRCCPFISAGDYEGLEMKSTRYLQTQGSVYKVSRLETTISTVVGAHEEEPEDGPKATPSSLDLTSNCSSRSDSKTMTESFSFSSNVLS
Method: Measurement of NK1 Receptor Mediated Intracellular [Ca^2+] Mobilization in U251 MG Cells Using FLIPR
U251 MG cells were seeded into black walled clear-bottom 384-well plates (Greiner Bio-One GmbH, Frickenhausen, Germany) at a density of 15,000 cells/well in 50 μl culture medium and cultured overnight in a 37° C. 5% CO2 incubator. The cells were then loaded with the calcium sensitive dye Fluo-4 (Invitrogen) at 1 μM in buffer, containing 0.04%
Pluronic F-127 (Sigma-Aldrich), and 2.5 mM probenecid (Sigma-Aldrich) for 60 min in a humidified atmosphere of 5% CO2. Thereafter, cells were washed three times in washing buffer containing 20 mM HEPES and 2.5 mM probenecid pH 7.3. Serial dilutions of test compounds in assay buffer containing 2% dimethyl sulfoxide (final concentration in the cell plate is 0.5% DMSO) and/or agonist were then automatically pipetted into each test well, and the peak fluorescence intensity was recorded (lex, 488 nm; lem, 540 nm) by the FLIPR instrument (Molecular Devices) for approximately 5 min. To measure antagonist potency, cell plates were first incubated with the test compound and intracellular fluorescence recorded for 5 minutes to check a potential agonist effect of the test compound. Cell plates were quickly removed from the FLIPR instrument and incubated for additional 10 minutes at 37° C. before being moved back to the FLIPR instrument for Substance P (EC80) addition. The response was measured as the peak relative fluorescence change after agonist addition.
The IC50 value is defined as the molar concentration of a test compound that produces a response midway between the fitted top and the fitted bottom. pIC50=−log IC50
Formula is listed as follows: Fit(% Effect calculated)=(A+((B−A)/(1+((C/X)^D)))) • A: bottom value • B: top value • C: […] • D: Hill slope coefficient
Ref: Sullivan E, Tucker E M, and Dale I L. Measurement of [Ca^2+] using the Fluorometric Imaging Plate Reader (FLIPR). Methods Mol Biol 114:125-133, 1999.
Compounds of the present invention were tested according to example 120.

[1] = Hepatic intrinsic clearance following incubation in human liver microsomes; format: in vitro ADME; conditions: NADPH regenerating system, 0-30 min, 37 °C
Method: Hepatic Extraction Ratio from Hepatic Intrinsic Clearance Following Incubation in Human Liver Microsomes
The general procedure consists of an automated incubation system and LC-MS/MS analysis with human liver microsomes. Human liver microsomes are thawed rapidly in a waterbath at 37° C. and kept on ice until use. The human liver microsomes are diluted with 50 mM potassium phosphate buffer pH 7.4 to a protein concentration of 0.55 mg/mL. Test compounds and positive controls (Verapamil and Dextromethorphan, positive controls for CYP3A4 for CYP2D6 isoforms, respectively) are dissolved in methanol (or other appropriate solvent, if necessary) in order to obtain a 5 mM solution which is further diluted to the concentration of 50 μM. The stock solutions are prepared immediately before the test.
5 μL of 50 μM test compounds and controls are added to 445 μL-of the 0.55 mg/mL microsomes solution and the incubation mixture are pre-warmed at 37° C. for 5 minutes.
The incubation reactions are initiated by adding 50 μL of pre-warmed NADPH regenerating system to the incubation mixtures. 50 μL-aliquots will be taken from the incubation mixtures at: 0, 3, 6, 9, 15 and 30 minutes and the reactions are stopped by adding 100 μL of ACN containing Rolipram, used as generic Internal Standard (1S). Samples are then diluted with 120 μL of Milli-Q water and centrifuged at 3000 rpm for 10 minutes, prior the LC-MS/MS analysis.
The integrated peak areas for test compounds at the selected time points are divided by the respective peak areas of the IS and the percent of parent remaining is calculated by normalizing the peak area ratio of parent to IS at 0 min. Observed rate constant (kobs) for parent degradation is calculated by determining the slope of the line of the graph of the natural log of percentage parent remaining versus time of incubation. From the rate of depletion (min-1) and volume of the incubation (mL), clearance is estimated. This is scaled for the protein in the incubation relative to that in the intact liver, for all species (mL/min/g liver).
Values for the Human in vitro Clint are expressed as mL/min/g liver.
Assuming a liver weight of 25.7 g/kg and a liver blood flow of 20.7 mL/min/kg, the hepatic extraction ratio, Eh, can be derived from the Human in vitro Clint:
E.g. a Human in vitro Clint of 2.4 mL/min/g liver corresponds to a hepatic extraction ratio of 75%.
Some compounds of the present invention were tested according to example 121.

SMILES | IC50 (NK1 receptor) [nM] | Human in vitro Clint (mL/min/g liver) [1] [mL/min/g liver]
Cc1ccccc1[C@H]1[C@@H]2CCC(=O)N2CCN1C(=O)N(C)[C@H](C)c1cc(C(C)C)cc(C(F)(F)F)c1 [Compound 112, (1S,8aS)-N-((R)-1-(3-isopropyl-5-(trifluoromethyl)phenyl)ethyl)-N-methyl-6-oxo-1-o-tolylhexahydropyrrolo[1,2-a]pyrazine-2(1H)-carboxamide] | 0.0316 | 51
Cc1ccccc1[C@H]1[C@@H]2CC(CCO)(CCO)C(=O)N2CCN1C(=O)N(C)[C@H](C)c1cc(Cl)cc(C(F)(F)F)c1 [Compound 89, (1S,8aS)-N-((R)-1-(3-chloro-5-(trifluoromethyl)phenyl)ethyl)-7,7-bis(2-hydroxyethyl)-N-methyl-6-oxo-1-o-tolylhexahydropyrrolo[1,2-a]pyrazine-2(1H)-carboxamide] | 0.126 | 15
Cc1ccccc1[C@H]1[C@@H]2CC(CCO)(CCO)C(=O)N2CCN1C(=O)N(C)[C@H](C)c1cccc(C(F)(F)F)c1 [Compound 88, (1S,8aS)-7,7-bis(2-hydroxyethyl)-N-methyl-6-oxo-1-o-tolyl-N-((R)-1-(3-(trifluoromethyl)phenyl)ethyl)hexa hydropyrrolo[1,2-a]pyrazine-2(1H)-carboxamide] | 0.0631 | 13
CCc1cc([C@@H](C)N(C)C(=O)N2CCN3C(=O)CC[C@H]3[C@@H]2c2ccccc2C)cc(C(F)(F)F)c1 [Compound 109, (1S,8aS)-N-((R)-1-(3-ethyl-5-(trifluoromethyl)phenyl)ethyl)-N-methyl-6-oxo-1-o-tolylhexahydropyrrolo[1,2-a]pyrazine-2(1H)-carboxamide] | 0.1 | 13
Cc1ccccc1[C@H]1[C@@H]2CC(CCO)(CCO)C(=O)N2CCN1C(=O)N(C)[C@@H](C)c1cc(Cl)cc(C(F)(F)F)c1 [Compound 90, (1S,8aS)-N-((S)-1-(3-chloro-5-(trifluoromethyl)phenyl)ethyl)-7,7-bis(2-hydroxyethyl)-N-methyl-6-oxo-1-o-tolylhexahydropyrrolo[1,2-a]pyrazine-2(1H)-carboxamide] | 0.0398 | 7.6
Cc1ccccc1[C@H]1[C@@H]2CC(CCO)(CCO)C(=O)N2CCN1C(=O)N(C)[C@H](CO)c1cc(C(F)(F)F)cc(C(F)(F)F)c1 [Compound 86, (1S,8aS)-N-((S)-1-(3,5-bis(trifluoromethyl)phenyl)-2-hydroxyethyl)-7,7-bis(2-hydroxyethyl)-N-methyl-6-oxo-1-o-tolylhexahydropyrrolo[1,2-a]pyrazine-2(1H)-carboxamide] | 0.129 | 2.8
Cc1ccccc1[C@H]1[C@@H]2CC(CCO)(CCO)C(=O)N2CCN1C(=O)N(C)[C@H](C)c1cc(C(F)F)cc(C(F)(F)F)c1 [Compound 97, (1S,8aS)-N-((R)-1-(3-(difluoromethyl)-5-(trifluoromethyl)phenyl)ethyl)-7,7-bis(2-hydroxyethyl)-N-methyl-6-oxo-1-o-tolylhexahydropyrrolo[1,2-a]pyrazine-2(1H)-carboxamide] | 0.0501 | 14
COc1cc([C@@H](C)N(C)C(=O)N2CCN3C(=O)C(CCO)(CCO)C[C@H]3[C@@H]2c2ccccc2C)cc(C(F)(F)F)c1 [Compound 91, (1S,8aS)-7,7-bis(2-hydroxyethyl)-N-((R)-1-(3-methoxy-5-(trifluoromethyl)phenyl)ethyl)-N-methyl-6-oxo-1-o-tolylhexahydropyrrolo[1,2-a]pyrazine-2(1H)-carboxamide] | 0.0631 | 8.5
Cc1cc([C@H](C)N(C)C(=O)N2CCN3C(=O)C(CCO)(CCO)C[C@H]3[C@@H]2c2ccccc2C)cc(C(F)(F)F)c1 [Compound 84, (1S,8aS)-7,7-bis(2-hydroxyethyl)-N-methyl-N-((S)-1-(3-methyl-5-(trifluoromethyl)phenyl)ethyl)-6-oxo-1-o-tolylhexahydropyrrolo[1,2-a]pyrazine-2(1H)-carboxamide] | 0.0631 | 8.5

Now from value to compound:

IC50 (NK1 receptor) [nM] | Human in vitro Clint (mL/min/g liver) [1] [mL/min/g liver] | SMILES
0.148 | 12 | Cc1ccccc1[C@H]1[C@@H]2CC(CCO)(CCO)C(=O)N2CCN1C(=O)N(C)Cc1cc(F)cc(C(F)(F)F)c1 [Compound 76, (1S,8aS)-N-(3-fluoro-5-(trifluoromethyl)benzyl)-7,7-bis(2-hydroxyethyl)-N-methyl-6-oxo-1-o-tolylhexahydropyrrolo[1,2-a]pyrazine-2(1H)-carboxamide]
0.224 | 2.9 | Cc1ccccc1C1C2CC(CN3CCOCC3)C(=O)N2CCN1C(=O)N(C)Cc1cc(C(F)(F)F)cc(C(F)(F)F)c1 (single isomer, unassigned) [Compound 41]
0.0251 | 6.9 | Cc1cc([C@@H](C)N(C)C(=O)N2CCN3C(=O)C4(CCOCC4)C[C@H]3[C@@H]2c2ccccc2C)cc(C(F)(F)F)c1 [Compound 101]
0.661 | 1.0 | Cc1ccccc1C1C2CC(C)(C(=O)N(C)C)C(=O)N2CCN1C(=O)N(C)Cc1cc(C(F)(F)F)cc(C(F)(F)F)c1 (single isomer, unassigned) [Compound 26, 2-N-{[3,5-bis(trifluoromethyl)phenyl]methyl}-2-N,7-N,7-N,7-tetramethyl-1-(2-methylphenyl)-6-oxo-octahydropyrrolo[1,2-a]piperazine-2,7-dicarboxamide]
0.309 |  | CC(=O)N1CCN(CC2CC3C(c4ccccc4C)N(C(=O)N(C)Cc4cc(C(F)(F)F)cc(C(F)(F)F)c4)CCN3C2=O)CC1 (centres unmarked) [Compound 37, 7-[(4-acetylpiperazin-1-yl)methyl]-N-{[3,5-bis(trifluoromethyl)phenyl]methyl}-N-methyl-1-(2-methylphenyl)-6-oxo-octahydropyrrolo[1,2-a]piperazine-2-carboxamide]
0.912 |  | Cc1ccccc1C1C2CC(CO)CN2CCN1C(=O)N(C)Cc1cc(C(F)(F)F)cc(C(F)(F)F)c1 (single isomer, unassigned) [Compound 28, N-{[3,5-bis(trifluoromethyl)phenyl]methyl}-7-(hydroxymethyl)-N-methyl-1-(2-methylphenyl)-octahydropyrrolo[1,2-a]piperazine-2-carboxamide; methanesulfonic acid salt]
4.57 |  | Cc1ccccc1C1C2CC3(CCN(C)CC3)C(=O)N2CCN1C(=O)N(C)Cc1cc(C(F)(F)F)cc(C(F)(F)F)c1 (single isomer, unassigned) [Compound 46, N-{[3,5-bis(trifluoromethyl)phenyl]methyl}-N,1-dimethyl-4′-(2-methylphenyl)-1′-oxo-hexahydro-1′H-spiro[piperidine-4,2′-pyrrolo[1,2-a]piperazine]-5′-carboxamide]
